In patent publication US20240067693A1, “POLYPEPTIDES AND USES THEREOF” (MEDIMMUNE LIMITED, priority 2020, published 2024):
Numbered stars: 1 amine (or outer) side, 2 acyl side, 3 side chain; on linkers, the order of the positions; unused ones are H or OH. Bridge positions count the residues as written; N and C are the ends. Square brackets hold non-standard residues; d marks the D form. Side chains are listed from the residue outwards. Peptide text beside a SMILES is read from it. * marks the point of attachment. C18 diacid = O=C(O)CCCCCCCCCCCCCCCCC(=O)*; γGlu = O=C(O)[C@H](CCC(=O)[*:2])N[*:1]; Aib = CC(C)(N)C(=O)O

How the values were obtained:
[1] = molecular target: T1, human amylin receptor (calcitonin receptor co-expressed with receptor activity modifying protein, RAMP3) (hAMYR3) (Homo sapiens, UniProt O60896+P30988); test: cAMP production in 1321N1 cells with stable recombinant expression of human amylin receptor (hAMYR3); assay type: cell-based; settings: for Ratio (selectivity hAMYR vs hCTR, ratio of EC50 values at the two receptors): EC50 hCTR / EC50 hAMYR3; for EC50: cAMP, 1321N1 cells, assay buffer with 0.1% BSA, read-out: EC50 (pM) hAMYR3
T1 construct: expressed in transfected cells
T1 sequence (P30988 25-474): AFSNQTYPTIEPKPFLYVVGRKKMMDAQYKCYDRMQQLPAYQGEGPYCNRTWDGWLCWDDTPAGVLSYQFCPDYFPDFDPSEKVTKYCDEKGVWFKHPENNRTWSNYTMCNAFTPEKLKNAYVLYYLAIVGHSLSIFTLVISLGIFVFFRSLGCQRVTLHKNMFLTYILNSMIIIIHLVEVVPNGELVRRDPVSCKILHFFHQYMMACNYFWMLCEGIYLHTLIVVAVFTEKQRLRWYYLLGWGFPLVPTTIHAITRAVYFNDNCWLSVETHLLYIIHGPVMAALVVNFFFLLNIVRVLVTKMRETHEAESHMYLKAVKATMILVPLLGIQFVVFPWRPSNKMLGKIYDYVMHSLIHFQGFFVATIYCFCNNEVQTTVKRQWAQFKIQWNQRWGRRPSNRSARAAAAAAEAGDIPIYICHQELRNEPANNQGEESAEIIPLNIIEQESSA
T1 sequence (O60896 24-148 partner): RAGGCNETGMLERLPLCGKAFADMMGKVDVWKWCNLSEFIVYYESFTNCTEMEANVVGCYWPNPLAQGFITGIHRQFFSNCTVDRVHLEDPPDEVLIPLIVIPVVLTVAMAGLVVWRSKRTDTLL
Outline: (§1)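 Receptor-expressing cells (human receptors in 1321N1, rat receptors in HEK) incubated 30 min at room temperature with peptide in HBSS/HEPES pH 7.4, 0.1% BSA, 0.5 mM IBMX. cAMP read by HTRF; EC50 from 4-parameter fit as % of maximal amylin or calcitonin response.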

[2] = molecular target: T2, human calcitonin receptor (hCTR) (Homo sapiens, UniProt P30988); test: cAMP production in 1321N1 cells with stable recombinant expression of human calcitonin receptor (hCTR); assay type: cell-based; settings: cAMP, 1321N1 cells, assay buffer with 0.1% BSA; read-out: EC50 (pM) hCTR
T2 construct: expressed in transfected cells
T2 sequence (P30988 25-474): T1 sequence (P30988 25-474)
Outline: as §1

[3] = molecular target: T3, rat amylin receptor (calcitonin receptor co-expressed with receptor activity modifying protein, RAMP3) (Rat AMYR3) (Rattus norvegicus, UniProt P32214+Q9JJ73); test: cAMP production in HEK cells with stable recombinant expression of rat amylin receptor (Rat AMYR3); assay type: cell-based; settings: assay buffer with 0.1% BSA
T3 construct: expressed in transfected cells
T3 sequence (P32214 25-516): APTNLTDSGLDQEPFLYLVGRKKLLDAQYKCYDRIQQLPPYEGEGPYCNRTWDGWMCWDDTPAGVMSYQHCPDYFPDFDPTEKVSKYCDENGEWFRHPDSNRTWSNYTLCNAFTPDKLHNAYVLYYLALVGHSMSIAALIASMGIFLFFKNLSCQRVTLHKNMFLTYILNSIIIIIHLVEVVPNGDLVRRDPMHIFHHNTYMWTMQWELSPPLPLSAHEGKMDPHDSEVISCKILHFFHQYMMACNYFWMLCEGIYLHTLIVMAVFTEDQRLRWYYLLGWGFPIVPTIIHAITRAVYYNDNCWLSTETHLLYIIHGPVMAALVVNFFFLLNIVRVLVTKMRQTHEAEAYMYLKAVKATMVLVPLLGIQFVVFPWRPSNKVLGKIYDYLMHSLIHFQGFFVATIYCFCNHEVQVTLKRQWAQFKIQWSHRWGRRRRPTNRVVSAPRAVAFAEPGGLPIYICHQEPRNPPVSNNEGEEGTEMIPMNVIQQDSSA
T3 sequence (Q9JJ73 23-147 partner): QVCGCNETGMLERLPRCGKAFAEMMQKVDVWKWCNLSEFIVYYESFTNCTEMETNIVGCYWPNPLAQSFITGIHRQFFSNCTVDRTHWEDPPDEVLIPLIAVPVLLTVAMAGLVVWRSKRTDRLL
Description: (§2) The functional activities of lipidated pramlintide analogue peptides, such as cAMP production, were tested in 1321N1 cell line with stable recombinant expression of human calcitonin receptor (hCTR) or human amylin receptor (calcitonin receptor co-expressed with receptor activity modifying protein, RAMP3) (hAMYR3) or HEK cells with stable recombinant expression of rat calcitonin receptor (rat CTR) or rat amylin receptor (calcitonin receptor co-expressed with receptor activity modifying protein, RAMP3) (Rat AMYR3).
(§3) Cryopreserved cell stock was thawed rapidly in a water-bath, suspended in assay buffer (0.1% BSA (Sigma # A3059) in HBSS (Sigma # H8264) with 25 mM HEPES, pH 7.4 and containing 0.5 mM IB MX (Sigma# 17018)) and spun at 240×g for 5 minutes. Cells were re-suspended in assay buffer at a batch-dependent optimized concentration (e.g. hCTR cells at 0.125×10^5 cells/mL, hAMYR3 cells at 0.125×10^5 cells/mL, rat CTR cells at 1x10^5 cells/mL, rat AMYR3 at 2×10^5 cells/mL).
(§4) The test peptide stock was prepared in DMSO and diluted in assay buffer to reach stated concentrations and transferred in duplicates into a 384-black shallow well microtitre assay plate (Corning # 3676). Cells were added to the assay plate, incubated at room temperature for 30 minutes and the cAMP level measured using cAMP dynamic 2 HTRF kit (Cisbio, Cat # 62AM4PEJ), following the two step protocol as per manufacturer's recommendations. The plates were read on an Envision (Perkin Elmer) using excitation wavelength of 320 nm and emission wavelengths of 620nm & 665 nm.
(§5) Data was transformed to % Delta F as described in the manufacturer's guidelines and analyzed as percent activation of maximal amylin or calcitonin effect by 4-parameter logistic fit to determine EC50 values. The selectivity of a peptide to hAMYR vs hCTR is defined as a ratio of EC50 values at the two receptors.

[4] = molecular target: T4, rat calcitonin receptor (rat CTR) (Rattus norvegicus, UniProt P32214); test: cAMP production in HEK cells with stable recombinant expression of rat calcitonin receptor (rat CTR); assay type: cell-based; settings: assay buffer with 0.1% BSA
T4 construct: expressed in transfected cells
T4 sequence (P32214 25-516): T3 sequence (P32214 25-516)
Description: as §2, §3, §4, §5

lean rats = test: Rat acute food intake study; assay type: in vivo; settings: lean male Sprague Dawley rats, 20 nmol/kg subcutaneously
Description: Male Sprague Dawley rats were obtained from Taconic Denmark, ApS at approximately 7 weeks of age. Rats were implanted with a microchip for identification, housed 4/cage with enrichment, free access to food and water, and allowed one week acclimatisation while non-invasive characterization was performed. Rats were on a 12:12 light:dark cycle that switches at 1pm:1am. Food intake was monitored via the HM2 system (Lafayette Instrument) that allows for monitoring in a home cage. As each rat enters an access tunnel to feed, an IR beam is broken, and the implanted microchip is read. Resulting changes to food weight is then assigned to the specific animal. Social order has shown no impact to overall feeding patterns and amounts.
Rats were sorted into groups based on Day -1 body weight and 24-hour accumulated food intake (n=7 per group). On Day 0 rats were weighed, then fasted for 6 hours. Thirty (30) minutes prior to the reintroduction of food, rats were dosed subcutaneously (5 mL/kg) with 20 nmol/kg of test compound or 60 nmol/kg peptide 1 (pramlintide) diluted in an appropriate vehicle, after which food was returned, and lights went out. Automated food intake was monitored for the following 3 days, and rats were weighed once per day.
Food intake per rat was batched into 1-hour intervals and integrated into Gubra's GubraView data management system. Discrete food intake data was exported into MS Excel from which cumulative food intake data was generated. Cumulative food intake data was then transposed into GraphPad Prism (v8.0.1) for analysis of dark period feeding

[5] = Pharmacokinetic determination via IV and SC administration in Sprague Dawley rats; settings: male, rat, plasma, 20 nmol/kg

SMILES | Ratio (selectivity hAMYR vs hCTR, ratio of EC50 values at the two receptors) [1] | EC50 [1] | EC50 [2] | EC50 [3] | EC50 [4] | Cummulative food intake (% vehicle treated intake) At 12 h (lean rats) | Cummulative food intake (% vehicle treated intake) At 24 h (lean rats) | Cummulative food intake (% vehicle treated intake) At 48 h (lean rats) | half-life ([5]; iv) | half-life ([5]; sc)
CC[C@H](C)[C@H](NC(=O)[C@@H]1CCCN1C(=O)CNC(=O)[C@H](Cc1ccccc1)NC(=O)[C@H](CC(N)=O)NC(=O)C(C)(C)NC(=O)[C@H](CO)NC(=O)[C@H](CO)NC(=O)[C@H](Cc1c[nH]cn1)NC(=O)[C@@H](NC(=O)[C@H](CC(C)C)NC(=O)[C@H](Cc1ccccc1)NC(=O)[C@H](CCC(=O)O)NC(=O)[C@H](C)NC(=O)[C@H](CC(C)C)NC(=O)[C@H](CCCNC(=N)N)NC(=O)[C@H](CCC(N)=O)NC(=O)[C@@H](NC(=O)[C@H](C)NC(=O)[C@@H]1CSSC[C@H](NC(=O)[C@H](CCCCN)NC(=O)[C@@H](N)CCCCNC(=O)CC[C@H](NC(=O)CCCCCCCCCCCCCCCCC(=O)O)C(=O)O)C(=O)N[C@@H](CC(N)=O)C(=O)N[C@@H]([C@@H](C)O)C(=O)N[C@@H](C)C(=O)N[C@@H]([C@@H](C)O)C(=O)N1)[C@@H](C)O)C(C)C)C(=O)N[C@@H](CC(C)C)C(=O)N1CCC[C@H]1C(=O)N1CCC[C@H]1C(=O)N[C@H](C(=O)N[C@@H](CC(N)=O)C(=O)N[C@H](C(=O)NCC(=O)N[C@@H](CO)C(=O)N[C@@H](CC(N)=O)C(=O)N[C@H](C(=O)N[C@@H](Cc1ccc(O)cc1)C(N)=O)[C@@H](C)O)C(C)C)[C@@H](C)O [Peptide 38, K(γE-C18diacid)K[CNTATC]ATQRLAEFLVHSS(Aib)NFGPILPPTNVGSNTY-amide] (H-K([γGlu-C18 diacid])KCNTATCATQRLAEFLVHSS[Aib]NFGPILPPTNVGSNTY-NH2; disulfide 3-8; N-terminus assumed) | 6 | 190 pM | 1050 pM | 5.1 pM | 20.3 pM | 6.9 % vehicle treated intake | 5.5 % vehicle treated intake | 13.7 % vehicle treated intake | 6.6 h | 9 h
CC[C@H](C)[C@H](NC(=O)[C@@H]1CCCN1C(=O)CNC(=O)[C@H](Cc1ccccc1)NC(=O)[C@H](CC(N)=O)NC(=O)[C@H](CC(N)=O)NC(=O)[C@H](CO)NC(=O)[C@H](CO)NC(=O)[C@H](Cc1c[nH]cn1)NC(=O)C(C)(C)NC(=O)[C@H](CC(C)C)NC(=O)[C@H](Cc1ccccc1)NC(=O)[C@H](CC(N)=O)NC(=O)[C@H](C)NC(=O)[C@H](CC(C)C)NC(=O)[C@H](CCCNC(=N)N)NC(=O)[C@H](CCC(N)=O)NC(=O)[C@@H](NC(=O)[C@H](C)NC(=O)[C@@H]1CSSC[C@H](NC(=O)[C@@H](N)CCCCNC(=O)CC[C@H](NC(=O)CCCCCCCCCCCCCCCCC(=O)O)C(=O)O)C(=O)N[C@@H](CC(N)=O)C(=O)N[C@@H]([C@@H](C)O)C(=O)N[C@@H](C)C(=O)N[C@@H]([C@@H](C)O)C(=O)N1)[C@@H](C)O)C(=O)N[C@@H](CC(C)C)C(=O)N1CCC[C@H]1C(=O)N1CCC[C@H]1C(=O)N[C@H](C(=O)N[C@@H](CC(N)=O)C(=O)N[C@H](C(=O)NCC(=O)N[C@@H](CO)C(=O)N[C@@H](CC(N)=O)C(=O)N[C@H](C(=O)N[C@@H](Cc1ccc(O)cc1)C(N)=O)[C@@H](C)O)C(C)C)[C@@H](C)O [Peptide 149] (H-K([γGlu-C18 diacid])CNTATCATQRLANFL[Aib]HSSNNFGPILPPTNVGSNTY-NH2; disulfide 2-7; N-terminus assumed) | 9.2 | 130 pM | 1200 pM | 5.6 pM | 522 pM | 31 % vehicle treated intake | 31.8 % vehicle treated intake | 17.5 % vehicle treated intake | 6.9 h | 9.3 h
